Data reported in patent US20240033257A1, “USE OF PPAR-DELTA INHIBITOR IN COMBINATION WITH IMMUNOTHERAPEUTIC DRUG FOR PREPARING ANTI-TUMOR DRUG” (THE FIRST HOSPITAL OF JILIN UNIVERSITY, priority 2021, published 2024).

Columns and labels:
[1] = system: CD19+CD24hiIgDlo/− B cells; assay: Surface marker, PPARδ and Ki67 flow cytometry of B cell subpopulations in draining lymph nodes; assay type: in vivo, mouse
Experimental: For verifying this assumption, the experimental scheme of Example 4 was used. The mice of all groups were sacrificed at the 24th hour after the last injection of GSK3787 (i.e., the 72nd hour after the last FGK45.5 injection), and various surface marker analyses were conducted on the B cells isolated from lymph nodes of tumor-bearing mice to identify surface markers of B cell subpopulations having immunosuppressive effects and the effects of different treatments on B cell subpopulations having immunosuppressive effects.
At the 24th hour after the last GSK3787 injection, tumor draining lymph nodes of differently treated mice were sampled. The lymph nodes at the same body portion in natural, tumor-free mice were also sampled as the control group. The lymph nodes were ground into single-cell suspension. Cells from different lymph nodes were stained using various fluorescence labeling antibodies for flow cytometry assays.

[2] = system: CD19+CD24hiIgDlo/− B cells; assay: Co-culture of sorted B cell subpopulations from treated mice with CFSE-labelled CD4+ T cells; assay type: cell-based, mouse; conditions: B cells:T cells 1:1, 72 hours; FIG. 8a
Experimental: For evaluating the function-regulating effects on CD19^+CD24^hiIgD^lo/− B cells, the experimental scheme of Example 4 was employed. 24 hours after the last GSK3787 injection (i.e., 72 hours after the last FGK45.5 injection), mice of all groups were sacrificed. CD19^+CD24^hiIgD^lo/− B cell population and CD19^+CD24^loIgD^hiB cell population were isolated form draining lymph nodes of differently treated tumor-bearing mice using flow cytometry. Purified CD4^+ T cells from normal mice were labelled with 2.5 μM CFSE in vitro. The CFSE-labelled cells were resuspended in complete RPMI 1640 culture medium at 1×10^6/ml, and transferred into a 96-well plate coated with 10 μg/ml anti-CD3E antibody at 4° C. overnight. The B cells purified from draining lymph nodes and the foregoing T cells (1:1) were co-cultured for 72 hours in the foregoing 96-well plate containing 1 μg/ml anti-CD28 mAb for use in flow cytometry assays. The proliferation of the CFSE-labelled T cells was calculated using the equation: (1-MFI value of CFSE of T Cells in Experimental Group/MFI value of CFSE of B-cell-free T Cells in Control Group)[…].

B16 tumor = assay: CD19+ B cell eradication experiment in B16 tumor-bearing mice, tumor growth; assay type: in vivo, mouse; conditions: 250 μg anti-CD19 antibody (clone 1d3) intraperitoneal at day 6, 7 and 15; low-dose FGK45.5; FIG. 5b
Experimental: To some of the B16 tumor-bearing mice, the anti-CD19 antibody was used first to kill B cells, and then Rat IgG or FGK45.5 or FGK45.5 combined with the PPARδ inhibitor (GSK3787) was administered for treatment. Growth of the tumors was observed. Treatment with Rat IgG, FGK45.5, and FGK45.5 in combination with the PPARδ inhibitor were taken as control groups.
CD19^+ B cell Eradication Experiment: At the 6th day, 7th day, and 15th day after inoculation of B16 cells, 250 μg anti-CD19 antibody (clone 1d3) was administered to tumor-bearing mice through intraperitoneal injection, and the eradication rate of B cells as measured using FACS should be 90% or more.

[3] = system: MB49 cells (mouse bladder cancer cells); assay: MB49 bladder cancer tumor-bearing mouse model, tumor growth; assay type: in vivo; conditions: doses and regimens of FIG. 2a; FIG. 9
Description: From the results above, we anticipate that the PPARδ inhibitor could also enhance therapeutic effects of immunotherapeutic drug on tumors in other tumor models. In order to verify such possibility, we examined the therapeutic effects of the PPARδ inhibitor in combination with FGK45.5 on MB49 bladder cancer cell tumor-bearing mice. C57BL/6 mice (8 to 10 weeks, n=5/group, 4 groups) are subcutaneously inoculated with 7×10^5 MB49 cells (mouse bladder cancer cells) and about 8 days after inoculation of tumor cells when tumors became touchable, Rat IgG, or FGK45.5, or PPARδ inhibitor (GSK3787), or FGK45.5 in combination with PPARδ inhibitor (GSK3787) was administered. Tumor growth condition was monitored.

[4] = system: B16 tumor cells (mouse melanoma cells); assay: B16 melanoma tumor-bearing mouse model, tumor growth; assay type: in vivo; conditions: low-dose FGK45.5 (75 μg in total); inhibitors intraperitoneal once a day Day 7 to Day 16; FIG. 2a
Experimental: We used a mouse B16 melanoma model extensively used in researches and having relatively high immunogenicity (C57BL/6 B16 Tumor-Bearing Mouse Model): C57BL/6 mice (8-10-week-old, n=5/group) were subcutaneously inoculated with 7×10^5 B16 tumor cells (mouse melanoma cells), and about 8 days after inoculation of tumor cells when tumors became touchable, anti-CD40 agonistic antibody was administered.
The mice were monitored every day, and tumors were measured with calipers every four days. The tumors were measured for length (a) and width (b), and tumor volume=ab^2/2.
Dosage regimen: These tumor-bearing mice were treated using low-dose 25 μg of FGK45.5 (mouse anti-CD40 agonistic antibody) for three times, 75 μg in total (at Day 8, Day 11, and Day 14) or high-dose 40 μg for 5 times, 200 μg in total (at Day 8, Day 11, Day 14, Day 17, and Day 20) or 40 μg with Isotype Control Rat IgG for 5 times (at Day 8, Day 11, Day 14, Day 17, and Day 20). Subcutaneous injection was made between the tumor and the draining lymph node at the groin. 72 hours after the last injection of each group, samples of mouse blood serum were tested for alanine transaminase (ALT, a known indicator of liver tissue injury).
The establishment of the B16 melanoma tumor-bearing mouse model and the dosage regimens of low-dose and high-dose FGK45.5 followed Example 1. […]

[5] = system: human CD19+CD24hiIgDlo/− B cells; assay: Suppression of T cell IFNγ secretion by human CD19+CD24hiIgDlo/− B cells cultured with GSK3787; assay type: cell-based; conditions: cultured 24 hours with GSK3787
Experimental: B cells were isolated and gathered from the peripheral blood of multiple normal blood donors or patients, and CD19^+CD24^hiIgD^lo/− B cells were isolated from the gathered B cells and cultured for 24 hours in complete RPMI 1640 culture medium with or without the PPARδ inhibitor GSK3787. Then these B cells were washed twice to remove the PPARδ inhibitor, resuspended in complete RPMI 1640 culture medium at 1×10^6/ml. CD4^+CD25^− T cells were isolated from blood of normal blood donors. The treated CD19^+CD24^hiIgD^lo/− B cells and these T cells (1:1) were co-cultured for 48 hours, Dynabeads were coated with anti-human CD3 mAb and anti-human CD28 mAb and placed on a 96-well U-shaped culture plate. Golgi^plug (BD Biosciences), PMA and ionomycin were added into the culture medium together for 6 hours. CD4^+ T cells were surface stained, perforated in the cytomembrane, and stained intracellularly using fluorescence labelled anti-human IFNγ, then analyzed using flow cytometry.

[6] = system: B cells from draining lymph nodes; assay: Inhibition of CFSE-labelled CD4+ T cell proliferation by B cells from draining lymph nodes of treated tumor-bearing mice; assay type: cell-based, mouse; conditions: B cells:T cells 1:1, co-cultured 72 hours; FIG. 5a
Experimental: The next point was to verify whether the PPARδ inhibitor enhances immunotherapy through affecting B cells. First, the ability of B cells in draining lymph nodes of tumor-bearing mice treated differently to inhibit proliferation of activated T cells was examined in vitro. Purified C D4^+ T cells from normal mice were labelled using 2.5 μM CFSE in vitro. The CFSE-labelled cells were then resuspended in complete RPMI 1640 culture medium at 1×10^6/ml, and transferred into a 96-well plate that had been coated with 10 μg/ml anti-CD3ε antibody at 4° C. overnight. B cells purified from draining lymph nodes and the foregoing T cells (1:1) were co-cultured for 72 hours in the foregoing 96-well plate containing 1 μg/ml anti-CD28 mAb, and a flow cytometry assay was conducted. The cell proliferation rate of the CFSE-labelled T cells was calculated using the equation: (1-MFI value of CFSE of T Cells in Experimental Group/MFI value of CFSE of B-cell-free T Cells in Control Group)×100%. MFI refers to the mean fluorescence intensity.

[7] = system: lymphocytes in draining lymph nodes; assay: Lymphocyte subpopulations in draining lymph nodes of B16 tumor-bearing mice (flow cytometry, cell counting); assay type: in vivo, mouse
Experimental: The C57BL/6 B16 tumor-bearing mouse model (mice subcutaneously inoculated with 7×10^5 B16 cells, 8 days after inoculation of tumor cells, mice with tumors touchable) of Example 1 was used. The experiment included the treatment group of low-dose FGK45.5, the treatment group of low-dose FGK45.5 in combination with the PPARδ inhibitor, the treatment group of using the PPARδ inhibitor solely, and the isotype control Rat IgG treatment group. 24 hours after the last injection of GSK3787 (i.e., 72 hours after the last FGK45.5 injection), the mice of all group were sacrificed. Cells at lymph nodes of mice from all groups were sampled for flow cytometry assays and cell counting.

SMILES	proportion of the CD19+CD24hiIgDlo/− B cell subpopulation in draining lymph nodes ([1]; B16 tumor-bearing mice, 24th hour after last GSK3787 injection, FIGS. 7a, b)	Ki67 expression of CD19+CD24hiIgDlo/− B cells ([1]; FIG. 7e, f)	suppressive effects of CD19+CD24hiIgDlo/− B cells from draining lymph nodes of tumor-bearing mice on proliferation of activated CD4+ T cells [2]	therapeutic effects on B16 tumors with B cells eradicated (B16 tumor)	therapeutic effects on MB49 tumors, GSK3787 in combination with FGK45.5 [3]	therapeutic effects on MB49 tumors, used solely [3]	anti-tumor effects (speed of tumor growth) [4]	suppressive activity of human CD19+CD24hiIgDlo/− B cells (IFNγ secretion of activated T cells) ([5]; B cells of cancer patients (NSCLC))	suppressive activity of human CD19+CD24hiIgDlo/− B cells (IFNγ secretion of activated T cells) ([5]; B cells of healthy subjects)	inhibition of CD4 T cell proliferation by B cells from draining lymph nodes of treated tumor-bearing mice [6]	proportions of CD4/CD19 cells in draining lymph nodes ([7]; FIG. 4c)	absolute count of CD45+ cells in draining lymph nodes ([7]; low-dose FGK45.5, 24 hours after last GSK3787 injection, FIG. 4a)	absolute count and proportion of CD11c+ cells in draining lymph nodes ([7]; low-dose FGK45.5, FIG. 4b)	cell counts of CD4+ T and CD8+ T cells and their proportions in CD45+ cells in draining lymph nodes ([7]; low-dose FGK45.5, FIG. 4b)
O=C(NCCS(=O)(=O)c1ccc(C(F)(F)F)cn1)c1ccc(Cl)cc1 [GSK3787]	decreased significantly	reduced increase in Ki67 expression	reduced suppressive effects	lost its function of enhancing anti-tumor effects of FGK45.5	could further improve the effect of FGK45.5	no therapeutic effects	almost no anti-tumor effects	significantly reduced	significantly reduced	decreased inhibition	basically comparable	did not change	basically the same	consistent
O=C(Nc1ccncc1)c1cc([N+](=O)[O-])ccc1Cl [T0070907]	–	–	–	–	–	–	almost no anti-tumor effects	–	–	–	–	–	–	–
